Experimental data from patent US11168067B2, “Substituted quinazoline compound having blood-brain barrier penetration capability” (WEISHANG (SHANGHAI) BIO-PHARMACEUTICAL CO., LTD., priority 2016, dated 2021).

What was measured:
[1] = Blood-brain barrier penetration (brain tissue to plasma concentration ratio); type: in vivo; conditions: rat, rats, four hours after dosing
Procedure: To determine whether the compound was able to cross the blood-brain barrier (BBB), the rats were administered with the test compound. Four hours after dosing, rats were sacrificed, blood and brain tissue were collected and the concentration of the test compound was analyzed. Brain permeation is defined as the ratio of the concentration of the compound in the brain tissue to the concentration in the plasma. P-glycoprotein is the blood-brain barrier efflux protein, […].

PC-9 tumor cell = experiment: CellTiter-Glo (CTG) cell viability assay, PC-9 tumor cell growth inhibition; conditions: Homo sapiens, PC-9, 72 h, read-out: PC-9 tumor cell growth inhibition IC50
Procedure: Cell viability of tumor cells with EGFR-activated mutations (exon 19-deficient Exon 19 Del) protein was detected using CellTiter-Glo (CTG) assay; about 5000 cells were seeded in each blank 96-well plate, 16 hours later, add the proportionally diluted compound, equilibrated at room temperature for 72 hours after the addition of the drug for 30 minutes. 100 μl of CellTiter-Glo reagent was added to each well and the orbital shaker was mixed for 2 minutes to induce cell lysis. The plate was incubated at room temperature for 10 minutes to stabilize the luminescence signal. The TECAN Infinite M1000 Pro instrument records the luminescence signal.

P-glycoprotein = P-glycoprotein (Homo sapiens, UniProt P08183); experiment: P-glycoprotein efflux substrate; type: in vitro ADME
Chain of P-glycoprotein (P08183 whole entry): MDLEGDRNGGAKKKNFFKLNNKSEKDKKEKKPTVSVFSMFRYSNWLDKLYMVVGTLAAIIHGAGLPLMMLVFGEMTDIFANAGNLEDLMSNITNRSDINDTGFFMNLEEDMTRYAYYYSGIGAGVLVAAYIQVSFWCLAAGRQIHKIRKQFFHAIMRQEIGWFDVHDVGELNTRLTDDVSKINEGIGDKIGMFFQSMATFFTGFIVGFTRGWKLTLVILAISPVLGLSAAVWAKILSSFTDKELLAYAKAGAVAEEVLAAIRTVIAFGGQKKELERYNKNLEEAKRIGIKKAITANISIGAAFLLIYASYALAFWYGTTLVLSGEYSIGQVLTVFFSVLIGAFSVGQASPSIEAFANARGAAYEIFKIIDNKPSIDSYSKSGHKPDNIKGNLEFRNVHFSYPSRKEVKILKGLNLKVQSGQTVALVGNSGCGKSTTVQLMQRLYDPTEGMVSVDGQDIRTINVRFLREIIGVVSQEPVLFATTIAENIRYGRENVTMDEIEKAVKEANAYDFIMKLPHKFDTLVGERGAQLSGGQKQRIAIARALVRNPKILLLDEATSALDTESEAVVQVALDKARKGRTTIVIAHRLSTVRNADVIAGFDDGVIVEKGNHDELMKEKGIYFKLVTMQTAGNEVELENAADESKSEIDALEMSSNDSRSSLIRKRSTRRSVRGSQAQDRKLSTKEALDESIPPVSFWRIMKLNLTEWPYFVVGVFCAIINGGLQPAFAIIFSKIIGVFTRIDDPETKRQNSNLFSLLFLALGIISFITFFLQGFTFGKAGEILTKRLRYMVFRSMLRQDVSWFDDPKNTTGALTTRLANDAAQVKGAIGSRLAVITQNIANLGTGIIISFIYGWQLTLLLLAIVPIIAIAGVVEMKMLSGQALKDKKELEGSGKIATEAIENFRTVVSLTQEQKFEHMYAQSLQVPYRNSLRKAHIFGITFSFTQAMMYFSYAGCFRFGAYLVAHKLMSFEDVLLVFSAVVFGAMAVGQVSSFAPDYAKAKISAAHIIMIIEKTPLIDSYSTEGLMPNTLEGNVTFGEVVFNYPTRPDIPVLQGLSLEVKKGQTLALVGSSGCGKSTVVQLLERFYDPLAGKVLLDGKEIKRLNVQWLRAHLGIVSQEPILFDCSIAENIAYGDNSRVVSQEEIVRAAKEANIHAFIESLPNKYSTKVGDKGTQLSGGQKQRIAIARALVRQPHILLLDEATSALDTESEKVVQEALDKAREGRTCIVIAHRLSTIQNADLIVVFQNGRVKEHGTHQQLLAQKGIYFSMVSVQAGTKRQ

PC-9-luc tumor cells = experiment: Efficacy study on intracranial animal model (PC-9-luc); type: in vivo; conditions: Iressa human equivalent dose, 8 mice per group
Excerpt: The injection was slowly preceded over a one-minute period. Upon completing injection, the needle was retained for another minute. After the needle removal, the hole was sealed with bone wax and the incision was closed. The tumor growth was monitored by image analysis. On Day 10, mice were randomized into 5 groups (8 mice per group) and start the treatments for three weeks.
The tumor growth was monitored by bioiluminense intensity. […] The survival benefits (no death or bodyweight loss less than 18%) treatment with compound X disclosed in table 3.

Structure (SMILES)	Kp at 4 h [1]	IC50 (PC-9 tumor cell) [nM]	P-glycoprotein efflux substrate (P-glycoprotein)	survival (no death or bodyweight loss less than 18%), mice at D 20 (PC-9-luc tumor cells; D 20 post tumor implantation)	survival, mice at D 24 (PC-9-luc tumor cells; D 24 post tumor implantation)	survival, mice at D 27 (PC-9-luc tumor cells; D 27 post tumor implantation)	survival, mice at D 28 (PC-9-luc tumor cells; D 28 post tumor implantation)	survival, mice at D 30 (PC-9-luc tumor cells; D 30 post tumor implantation)	survival, mice at D 31 (PC-9-luc tumor cells; D 31 post tumor implantation)
[2H]C([2H])([2H])Oc1cc2ncnc(Nc3ccc(F)c(Cl)c3F)c2cc1O[C@H]1CCN(C2COC2)CC1(F)F [Compound 29, (S)—N-(3-chloro-2,4-difluorophenyl)-6-((3,3-difluoro-1-(oxetan-3-yl)piperidin-4-yl)oxy)-7-(methoxy-d3)quinazolin-4-amine]	> 0.3	< 1	–	–	–	–	–	–	–
COc1cc2ncnc(Nc3ccc(F)c(Cl)c3)c2cc1OCCCN1CCOCC1 [Iressa, gefitinib]	< 0.05	–	yes	8	7	7	7	7	4
